{"source": "patent US12685733B2", "about": "“Indole molecules and use thereof in the inhibition of DNA polymerases” (BioVentures, LLC, priority 2019, dated 2026)", "key": {"[1]": {"system": "hpol κ-deficient HAP-1 cells", "test": "Clonogenic survival assay", "type": "cell-based, human", "description": "(§1) HAP-1 and hpol κ^KO cells were purchased from Horizons Discovery Group LLC (Cambridge, UK). The company generated the Hap1 cells using CRISPR-Cas9 technology and the elimination of kappa expression was confirmed by Sanger sequence genome editing. We further confirmed the elimination of hpol κ protein expression by Western blotting (data not shown). Hap1 cells were cultured in Iscove's modified Dulbecco's medium (IMDM; Invitrogen, CA, USA) supplemented with 10% (v/v) fetal bovine serum (FBS; Atlas Biologicals, CO, USA) and 1% (v/v) antibiotic/antimycotic solution (Sigma-Aldrich, MO, USA).T98G cells were purchased from ATCC (American Type Culture Collection, VA, USA). T98G cells were cultured in MEM (Minimum Essential Medium) (Invitrogen, CA, USA) supplemented with 10% (v/v) FBS (Fetal Bovine Serum, Atlas Biologicals, CO, USA) and antibiotic/antimycotic solution (1%, v/v) (Sigma-Aldrich, MO, USA). NT2 cells were kindly provided by Dr. Michael Borrelli (University of Arkansas for Medical Sciences, AR, USA). NT2 cells were cultured in DMEM/F12 (Dulbecco's Modified Eagle Medium) supplemented with 10% (v/v) FCS (Fetal Calf Serum) and antibiotic/antimycotic solution (1%) (Sigma-Aldrich, MO, USA).\n(§2) To measure the clonogenic ability, cells were plated (500 cells per well) in 6-well dishes. In the case of HAP-1 cells, cells were treated the following day after plating, with temozolomide (TMZ) (0, 1, 5, 50, 125 and 250 μM) alone or in combination with UAMS-48 (0.1 and 0.5 μM) for 1 hour. In the case of T98G and NT2 cells, treatment was done on the following day of plating, with increasing concentrations of TMZ alone or in combination with UAMS-48 (50 nM) for 3 hrs. T98G and NT2 cells were treated with increasing concentrations of UAMS-48 for 3 hrs. After treatment, cells were cultured in fresh IMDM supplemented with 10% FBS for 10 days. The colonies were gently washed with 1×PBS, fixed with 3.7% (v/v) formaldehyde for 20 mins at RT and stained with crystal violet solution (Sigma-Aldrich, MO, USA) for 30 mins at RT.\n(§3) The fixed crystal-violet stained colonies in each 6-well plate were examined under an EVOS XL Core imaging system (Thermo Fisher Scientific) under bright-field, and the colonies were inspected manually. […] Color images of each 6-well plate were captured and opened for processing using the Fiji version of the freely available software ImageJ. Setting the appropriate threshold for counting colonies for each cell type, corresponding to the respective radii calculated previously, the colonies were counted using the Colony Area plugin of ImageJ. Manual counting was performed on a few wells picked randomly, and the colony count so obtained was tallied with the number obtained using ImageJ, to ensure they matched reasonably. All experiments were performed in triplicate, and the colony number for each well was expressed as the mean (±standard deviation). The results were plotted to generate a dose response curve for TMZ treatment using the software Graphpad Prism, where the mean number of colonies was plotted along the Y-axis, and the TMZ concentration along the X-axis. Bar charts comparing the mean number of colonies as a function of the various conditions were also plotted for both cell types. Combination index values were calculated using the Chou-Talalay method (Chou 2010)."}, "[2]": {"system": "hpol κ-proficient HAP-1 cells", "test": "Clonogenic survival assay", "type": "cell-based, human", "description": "as §1, §2, §3"}, "[3]": {"molecular_target": "T1, Dpo1 (Saccharolobus solfataricus, UniProt P26811)", "T1 construct": "made in house", "T1 sequence (P26811 1-882)": "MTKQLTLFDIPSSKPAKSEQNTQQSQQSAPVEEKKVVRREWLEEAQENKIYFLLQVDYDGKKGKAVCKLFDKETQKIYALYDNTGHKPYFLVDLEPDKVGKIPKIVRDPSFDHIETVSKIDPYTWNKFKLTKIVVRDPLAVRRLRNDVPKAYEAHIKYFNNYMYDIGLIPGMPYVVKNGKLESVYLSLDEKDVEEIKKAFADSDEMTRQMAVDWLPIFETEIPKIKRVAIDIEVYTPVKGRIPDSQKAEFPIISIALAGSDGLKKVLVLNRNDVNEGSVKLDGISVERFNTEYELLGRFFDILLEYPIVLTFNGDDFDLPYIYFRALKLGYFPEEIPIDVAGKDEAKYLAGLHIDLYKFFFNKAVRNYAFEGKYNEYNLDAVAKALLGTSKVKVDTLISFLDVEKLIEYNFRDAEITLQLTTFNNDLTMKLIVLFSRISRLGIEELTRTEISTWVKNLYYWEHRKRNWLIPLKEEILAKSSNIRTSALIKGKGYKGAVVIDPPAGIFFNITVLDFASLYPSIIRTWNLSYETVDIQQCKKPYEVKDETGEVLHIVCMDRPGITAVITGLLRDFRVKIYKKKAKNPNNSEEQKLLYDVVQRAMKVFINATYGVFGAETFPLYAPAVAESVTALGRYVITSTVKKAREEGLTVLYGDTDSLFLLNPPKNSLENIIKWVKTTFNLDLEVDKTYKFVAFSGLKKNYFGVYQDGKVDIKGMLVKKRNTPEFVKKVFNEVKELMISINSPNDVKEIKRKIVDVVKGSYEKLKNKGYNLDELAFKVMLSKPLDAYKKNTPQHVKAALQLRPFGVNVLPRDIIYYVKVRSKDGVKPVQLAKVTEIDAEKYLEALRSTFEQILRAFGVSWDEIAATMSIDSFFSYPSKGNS", "test": "Fluorescence-based polymerase assay, other pol families", "type": "biochemical, Sulfolobus solfataricus", "settings": "10 μM; 25 nM Dpo1 (B-family)"}, "[4]": {"molecular_target": "T2, hpol λ (Homo sapiens, UniProt Q9UGP5)", "T2 construct": "hpol λ, residues 1-325; gift of Dr. Miguel Garcia-Diaz (Stony Brook University)", "T2 sequence (Q9UGP5 242-575 limits assumed)": "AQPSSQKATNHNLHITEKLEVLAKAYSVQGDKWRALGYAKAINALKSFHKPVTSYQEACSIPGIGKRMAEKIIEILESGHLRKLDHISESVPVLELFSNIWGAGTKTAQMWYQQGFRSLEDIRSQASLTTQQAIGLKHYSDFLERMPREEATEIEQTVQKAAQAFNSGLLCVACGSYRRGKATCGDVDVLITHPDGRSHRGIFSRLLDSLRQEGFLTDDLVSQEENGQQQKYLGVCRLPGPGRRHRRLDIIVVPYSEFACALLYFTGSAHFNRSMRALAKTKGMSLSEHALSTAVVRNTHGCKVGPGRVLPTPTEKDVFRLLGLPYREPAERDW", "test": "Fluorescence-based polymerase assay, other pol families", "type": "biochemical", "settings": "10 μM; 10 nM hpol λ (X-family)"}}}
{"molecule": "Cl.[H]/N=C(\\N)NN=Cc1cn(C(=O)c2cccc3ccccc23)c2ccc(Cl)cc12", "note": "[IAG-10, (E)-2-((1-(1-naphthoyl)-5-chloro-1H-indol-3-y1)methylene)hydrazine-1-carboximidamide hydrochloride]", "values": [{"measurement": "colony formation, compound alone", "setting": "[1]; 0.5 μM IAG-10", "result": "does not impair colony formation"}, {"measurement": "colony forming ability, co-treatment over TMZ alone", "setting": "[1]; TMZ + 0.5 μM IAG-10", "result": "did not show any significant reduction in colony forming ability"}, {"measurement": "colony formation, compound alone", "setting": "[2]; 0.5 μM IAG-10", "result": "does not impair colony formation"}, {"measurement": "colonies formed relative to untreated cells", "setting": "[2]; 250 μM TMZ + 0.5 μM IAG-10 co-treatment, 1 hour", "result": "~ 40%"}, {"measurement": "polymerase activity relative to DMSO control", "setting": "[3]", "result": "only hpol κ activity was inhibited"}, {"measurement": "polymerase activity relative to DMSO control", "setting": "[4]", "result": "only hpol κ activity was inhibited"}]}
